Several values for one entry are separate records, joined by “and”; a condition that tells them apart may be missing. Equal entries are not always repeated. Inconclusive results and toxic doses are left out. Rule for the calls: active = survival T/C of 150% or more; inactive = T/C below 125% in these data.
Tested on: CD2F1 mice, L1210 leukemia ip, survival T/C
Assay: NCI In Vivo Anticancer Drug Screen. Data for tumor model L1210 Leukemia (intraperitoneal) in CD2F1 (CDF1) mice
Conditions: higher = longer survival
How it was run: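 Transplantable tumor in mice; compound-treated vs vehicle-treated groups. Read-out = treated/control ratio of the measured endpoint.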

[1] = endpoint: mean survival time, dose: 100.0 mg/kg/injection, schedule: Q04DX003 (ip), vehicle: Klucel (hydroxypropylcellulose) (HPC)
[2] = endpoint: mean survival time, dose: 200.0 mg/kg/injection, schedule: Q04DX003 (ip), vehicle: Klucel (hydroxypropylcellulose) (HPC)
[3] = endpoint: mean survival time, dose: 50.0 mg/kg/injection, schedule: Q01DX009 (ip), vehicle: saline with Tween-80
[4] = endpoint: mean survival time, dose: 100.0 mg/kg/injection, schedule: Q01DX009 (ip), vehicle: saline with Tween-80
[5] = endpoint: mean survival time, dose: 200.0 mg/kg/injection, schedule: Q01DX009 (ip), vehicle: saline with Tween-80
[6] = endpoint: mean survival time, dose: 400.0 mg/kg/injection, schedule: Q01DX009 (ip), vehicle: saline with Tween-80
[7] = endpoint: mean survival time, dose: 50.0 mg/kg/injection, schedule: Q04DX003 (ip), vehicle: saline with Tween-80
[8] = endpoint: mean survival time, dose: 100.0 mg/kg/injection, schedule: Q04DX003 (ip), vehicle: saline with Tween-80
[9] = endpoint: mean survival time, dose: 200.0 mg/kg/injection, schedule: Q04DX003 (ip), vehicle: saline with Tween-80
[10] = endpoint: mean survival time, dose: 25.0 mg/kg/injection, schedule: Q04DX003 (ip), vehicle: saline with Tween-80
[11] = endpoint: mean survival time, dose: 100.0 mg/kg/injection, schedule: Q04DX003 (ip), vehicle: saline
[12] = endpoint: mean survival time, dose: 200.0 mg/kg/injection, schedule: Q04DX003 (ip), vehicle: saline
[13] = endpoint: mean survival time, dose: 400.0 mg/kg/injection, schedule: Q04DX003 (ip), vehicle: saline with Tween-80

Measured: T/C

C/C(=N/NC(=O)c1ccccc1)c1ccccc1O
inactive: endpoint: mean survival time, dose: 100.0 mg/kg/injection, schedule: Q01DX009 (ip), vehicle: Klucel (hydroxypropylcellulose) (HPC) 92 % of control | [1] 97 % of control | endpoint: mean survival time, dose: 200.0 mg/kg/injection, schedule: Q01DX009 (ip), vehicle: Klucel (hydroxypropylcellulose) (HPC) 94 % of control | [2] 100 % of control | endpoint: mean survival time, dose: 400.0 mg/kg/injection, schedule: Q01DX009 (ip), vehicle: Klucel (hydroxypropylcellulose) (HPC) 94 % of control | endpoint: mean survival time, dose: 400.0 mg/kg/injection, schedule: Q04DX003 (ip), vehicle: Klucel (hydroxypropylcellulose) (HPC) 96 % of control

CC(C)N(CC(=O)O)CC(=O)O
inactive: endpoint: mean survival time, dose: 100.0 mg/kg/injection, schedule: Q01DX001 (ip), vehicle: saline 100 % of control | endpoint: mean survival time, dose: 200.0 mg/kg/injection, schedule: Q01DX001 (ip), vehicle: saline 100 % of control

O=c1[nH]c(C(F)(F)F)nc2c1nc1n2CCC1
inactive: endpoint: mean survival time, dose: 25.0 mg/kg/injection, schedule: Q01DX009 (ip), vehicle: saline with Tween-80 102 % of control | [3] 111 % of control | [4] 103 % of control

C1CNCOC1
inactive: endpoint: mean survival time, dose: 6.25 mg/kg/injection, schedule: Q01DX009 (ip), vehicle: saline 100 % of control | endpoint: mean survival time, dose: 12.5 mg/kg/injection, schedule: Q01DX009 (ip), vehicle: saline 95 % of control and 97 % of control | endpoint: mean survival time, dose: 25.0 mg/kg/injection, schedule: Q01DX009 (ip), vehicle: saline 100 % of control and 102 % of control | endpoint: mean survival time, dose: 50.0 mg/kg/injection, schedule: Q01DX009 (ip), vehicle: saline 101 % of control and 110 % of control | endpoint: mean survival time, dose: 100.0 mg/kg/injection, schedule: Q01DX009 (ip), vehicle: saline 106 % of control and 107 % of control | endpoint: mean survival time, dose: 200.0 mg/kg/injection, schedule: Q01DX009 (ip), vehicle: saline 100 % of control | endpoint: median survival time, dose: 6.25 mg/kg/injection, schedule: Q01DX009 (ip), vehicle: saline 100 % of control | endpoint: median survival time, dose: 12.5 mg/kg/injection, schedule: Q01DX009 (ip), vehicle: saline 102 % of control | endpoint: median survival time, dose: 25.0 mg/kg/injection, schedule: Q01DX009 (ip), vehicle: saline 107 % of control | endpoint: median survival time, dose: 50.0 mg/kg/injection, schedule: Q01DX009 (ip), vehicle: saline 107 % of control | endpoint: median survival time, dose: 100.0 mg/kg/injection, schedule: Q01DX009 (ip), vehicle: saline 112 % of control

Cc1ccc(S(=O)(=O)OCC(OS(=O)(=O)c2ccc(C)cc2)C2OC(c3ccccc3)OC2C2COC(c3ccccc3)O2)cc1 (stereo not drawn)
inactive: [4] 95 % of control | [5] 95 % of control | [6] 95 % of control

Clc1ccccc1-c1nc2ccccc2[nH]1
inactive: [7] 98 % of control | [8] 96 % of control | [9] 96 % of control

NNS(=O)(=O)c1ccccc1
inactive: [10] 97 % of control | [7] 97 % of control | [8] 94 % of control

CN(C)c1ccc(/C=N/NC(=O)CNC(=O)c2ccccc2)cc1
inactive: [4] 95 % of control | [5] 89 % of control | [6] 89 % of control

CCc1nc(N)nc(N)c1-c1ccc(Cl)c(N=[N+]=[N-])c1
inactive: endpoint: median survival time, dose: 12.5 mg/kg/injection, schedule: Q01DX009 (ip), vehicle: distilled water + Tween-80 100 % of control | endpoint: median survival time, dose: 25.0 mg/kg/injection, schedule: Q01DX009 (ip), vehicle: distilled water + Tween-80 101 % of control and 102 % of control | endpoint: median survival time, dose: 50.0 mg/kg/injection, schedule: Q01DX009 (ip), vehicle: distilled water + Tween-80 102 % of control and 107 % of control | endpoint: median survival time, dose: 100.0 mg/kg/injection, schedule: Q01DX009 (ip), vehicle: distilled water + Tween-80 113 % of control (2×) and 96 % of control

CN(C)CCP(c1ccccc1)c1ccccc1
inactive: endpoint: mean survival time, dose: 75.0 mg/kg/injection, schedule: Q01DX001 (ip), vehicle: other 102 % of control

O=CC1C(=O)N(c2ccccc2)c2ccccc21 (stereo not drawn)
inactive: endpoint: mean survival time, dose: 50.0 mg/kg/injection, schedule: Q04DX003 (ip), vehicle: Klucel (hydroxypropylcellulose) (HPC) 98 % of control | [1] 106 % of control | [2] 96 % of control

CCCCCCCC(C)/C=N/NC(=O)c1ccc[n+](C)c1 (stereo not drawn)
inactive: [11] 103 % of control | [12] 101 % of control

O=S(=O)(Nc1ccc(O)c(Cl)c1)c1ccccc1
inactive: [8] 98 % of control | [9] 97 % of control | [13] 110 % of control

O=C(O)CC(NC(=O)OCc1ccccc1)C(=O)OCc1ccccc1 (stereo not drawn)
inactive: [4] 93 % of control | [8] 104 % of control | [5] 96 % of control | [9] 100 % of control | [13] 87 % of control

Cc1ccccc1S(=O)(=O)/C(=C(/I)c1ccccc1)c1ccccc1
inactive: endpoint: mean survival time, dose: 50.0 mg/kg/injection, schedule: Q04DX003 (ip), vehicle: saline 94 % of control | [11] 102 % of control | [12] 98 % of control

COc1ccc(C=NC2CC(C)CCC2C)c(OC)c1 (stereo not drawn)
inactive: [4] 86 % of control | [8] 91 % of control | [5] 89 % of control | [9] 95 % of control | [6] 93 % of control | [13] 95 % of control

CSC(=S)N(C)/N=C/c1ccccn1
inactive: [4] 98 % of control | [5] 96 % of control

Cc1c(C(=O)O)nc(CC(O)C(Cl)(Cl)Cl)[nH]c1=O (stereo not drawn)
inactive: endpoint: mean survival time, dose: 25.0 mg/kg/injection, schedule: Q01DX005 (ip), vehicle: other 106 % of control | endpoint: mean survival time, dose: 50.0 mg/kg/injection, schedule: Q01DX005 (ip), vehicle: other 101 % of control | endpoint: mean survival time, dose: 100.0 mg/kg/injection, schedule: Q01DX005 (ip), vehicle: other 101 % of control | endpoint: mean survival time, dose: 200.0 mg/kg/injection, schedule: Q01DX005 (ip), vehicle: other 103 % of control | endpoint: mean survival time, dose: 400.0 mg/kg/injection, schedule: Q01DX005 (ip), vehicle: other 95 % of control

Nc1nc(N)c2nc(CN(Cc3ccccc3)c3ccc(C(=O)NC(CCC(=O)O)C(=O)O)cc3)cnc2n1 (stereo not drawn)
inactive: endpoint: mean survival time, dose: 20.0 mg/kg/injection, schedule: Q01DX009 (ip), vehicle: sodium bicarbonate 109 % of control | endpoint: mean survival time, dose: 40.0 mg/kg/injection, schedule: Q01DX009 (ip), vehicle: sodium bicarbonate 114 % of control | endpoint: mean survival time, dose: 80.0 mg/kg/injection, schedule: Q01DX009 (ip), vehicle: sodium bicarbonate 114 % of control | endpoint: mean survival time, dose: 100.0 mg/kg/injection, schedule: Q01DX001 (ip), vehicle: sodium bicarbonate 94 % of control | endpoint: mean survival time, dose: 200.0 mg/kg/injection, schedule: Q01DX001 (ip), vehicle: sodium bicarbonate 91 % of control | endpoint: mean survival time, dose: 400.0 mg/kg/injection, schedule: Q01DX001 (ip), vehicle: sodium bicarbonate 91 % of control

CCOC(=O)c1ccc(NC(=O)Nc2ccc(Nc3ccccc3)cc2)cc1
inactive: [10] 96 % of control | [3] 96 % of control and 102 % of control | [7] 91 % of control | endpoint: mean survival time, dose: 100.0 mg/kg/injection, schedule: Q01DX001 (ip), vehicle: saline with Tween-80 100 % of control | [4] 96 % of control and 102 % of control | endpoint: mean survival time, dose: 100.0 mg/kg/injection, schedule: Q04DX002 (ip), vehicle: saline with Tween-80 86 % of control and 97 % of control | [8] 92 % of control | endpoint: mean survival time, dose: 200.0 mg/kg/injection, schedule: Q01DX001 (ip), vehicle: saline with Tween-80 94 % of control | [5] 95 % of control and 98 % of control | endpoint: mean survival time, dose: 200.0 mg/kg/injection, schedule: Q04DX002 (ip), vehicle: saline with Tween-80 87 % of control and 91 % of control | endpoint: mean survival time, dose: 400.0 mg/kg/injection, schedule: Q01DX001 (ip), vehicle: saline with Tween-80 103 % of control | endpoint: mean survival time, dose: 400.0 mg/kg/injection, schedule: Q04DX002 (ip), vehicle: saline with Tween-80 87 % of control

Cc1c(N=Nc2ccc(N(C)C)cc2)cc[n+]([O-])c1C
inactive: [8] 102 % of control | [9] 110 % of control

[N-]=[N+]=NCc1cn(C2CC(O)C(CO)O2)c(=O)[nH]c1=O (stereo not drawn)
inactive: endpoint: mean survival time, dose: 6.25 mg/kg/injection, schedule: Q01DX005 (ip), vehicle: water 91 % of control | endpoint: mean survival time, dose: 12.5 mg/kg/injection, schedule: Q01DX005 (ip), vehicle: water 111 % of control | endpoint: mean survival time, dose: 25.0 mg/kg/injection, schedule: Q01DX005 (ip), vehicle: water 103 % of control | endpoint: mean survival time, dose: 50.0 mg/kg/injection, schedule: Q01DX005 (ip), vehicle: water 100 % of control

CC(C)CCCC(C)C1CCC2C3CC=C4CC(OCCC(C)C)CCC4(C)C3CCC12C (stereo not drawn)
inactive: [8] 97 % of control | [9] 95 % of control | [13] 88 % of control

C=C1C(O)C2(O)OCC34C(CC5C(C)=CC(=O)C(O)C5(C)C23)OC(=O)C(OC(=O)C/C=C(\C)CCCCC)C14 (stereo not drawn)
inactive: endpoint: median survival time, dose: 1.0 mg/kg/injection, schedule: Q01DX005 (ip), vehicle: saline + alcohol 109 % of control | endpoint: median survival time, dose: 2.0 mg/kg/injection, schedule: Q01DX005 (ip), vehicle: saline + alcohol 118 % of control | endpoint: median survival time, dose: 8.0 mg/kg/injection, schedule: Q01DX005 (ip), vehicle: saline + alcohol 121 % of control
